Results as given in US5143906A, “Kedarcidin antitumor chromophore and pharmaceutical composition containing same” (Bristol-Myers Squibb Company, priority 1991, dated 1992).
Converted amounts (≈) assume the structure as drawn.

What was measured:
[1] = tested on: iv implanted P388 leukemia; assay: Antitumor activity against iv implanted P388 leukemia; type: in vivo, murine (CDF1 mice); parameters: Med. surv. time: unit not given here
Source text: (§1) The P388 tumor was maintained in ascitic form in DBA/2 mice. Experimental tumor models used CDF^1 mice implanted via the intraperitoneal or intravenous route with 1×10^6 leukemia cells on day 0 and dosed with drugs according to the indicated route and schedule. Mice were weighed on day 0 and on day 5 or 6. Weight loss of 20% or greater was an indicator of drug toxicity. Each dose group consisted of 6 mice with 10 mice in the untreated control group. The dosing schedule was Q1DX1;1. Death checks were performed daily and the median life span of each group determined. […] Experiments were terminated on or about day 30.

[2] = tested on: ip implanted P388 leukemia; assay: Antitumor activity against ip implanted P388 leukemia; type: in vivo, murine (CDF1 mice); parameters: Med. surv. time: unit not given here
Source text: as §1

[3] = tested on: human ovarian carcinoma A2780 drug sensitive cell line; assay: In vitro cytotoxicity assay (XTT), A2780; type: cell-based; details: Homo sapiens; A2780, 72 h; VP-16 values: mean of triplicate determinations from last 6 experiments; read-out: IC50
Method: (§2) The A2780/DDP cell line is reported to be resistant through enhanced DNA repair mechanisms and elevated GSH/GST levels. Cells were cultured in McCoy's media and 10% fetal bovine serum. When in log phase growth, 4×10^3 cells/well were plated into 96 well microtiter plates and incubated at 37° C. in […] /5% CO2 for 24 hours to allow cell attachment. Compounds were added to the top row of wells, serially diluted (4 fold dilutions) and incubated for an additional 72 hours. The number of viable cells in each well was then quantitated as previously described^2 by adding 0.05 mg/ml final concentration tetrazolium stain (XTT) in the presence of 0.005 mM final concentration phenazine methosulfate. After incubation at room temperature for 3 hours to allow color development, optical density values were measured using a Dynatech MR600 plate reader at […]. IC50 values (drug concentration inhibiting cell growth by 50%) were calculated using linear regression analysis of the optical density readings. Triplicate determinations on separate 96 well plates were done for each drug on each cell line tested.

[4] = tested on: human colon adenocarcinoma HCT116 drug sensitive line; assay: In vitro cytotoxicity assay (XTT), HCT116; type: cell-based; details: Homo sapiens, HCT-116; HCT116, 72 h; VP-16 values: mean of triplicate determinations from last 6 experiments; read-out: IC50
Method: as §2

[5] = tested on: HCT116/VM46 drug resistant cell line; assay: In vitro cytotoxicity assay (XTT), HCT116/VM46; type: cell-based, human; details: Homo sapiens, HCT-116/VM46; HCT116/VM46, 72 h; VP-16 values: mean of triplicate determinations from last 6 experiments; read-out: IC50
Method: as §2

[6] = tested on: HCT116/VP35 drug resistant cell line; assay: In vitro cytotoxicity assay (XTT), HCT116/VP35; type: cell-based, human; details: Homo sapiens, HCT-116; HCT116/VP35, 72 h; VP-16 values: mean of triplicate determinations from last 6 experiments; read-out: IC50
Method: as §2

[7] = tested on: A2780/DDP drug resistant cell line; assay: In vitro cytotoxicity assay (XTT), A2780/DDP; type: cell-based, human
Method: as §2

SMILES: CO[C@@]12[C@H](COC(N)=O)C3=C(C(=O)C(C)=C(N)C3=O)N1C[C@@H]1N[C@@H]12 [Mitomycin C, reference compound]
- % T/C ([1]; Exp. 8305, 0.8 mg/kg/dose): 114%
- Av. wgt. change ([1]; Exp. 8305, 0.8 mg/kg/dose): 0.4 g
- Med. surv. time ([1]; Exp. 8305, 0.8 mg/kg/dose): 8.0
- No. of mice alive on d 5 ([1]; Exp. 8305, 0.8 mg/kg/dose): 6/6
- % T/C ([1]; Exp. 8305, 1.6 mg/kg/dose): 143%
- Av. wgt. change ([1]; Exp. 8305, 1.6 mg/kg/dose): -0.3 g
- Med. surv. time ([1]; Exp. 8305, 1.6 mg/kg/dose): 10.0
- No. of mice alive on d 5 ([1]; Exp. 8305, 1.6 mg/kg/dose): 6/6
- % T/C ([1]; Exp. 8305, 3.2 mg/kg/dose): 157%
- Av. wgt. change ([1]; Exp. 8305, 3.2 mg/kg/dose): 0.5 g
- Med. surv. time ([1]; Exp. 8305, 3.2 mg/kg/dose): 11.0
- No. of mice alive on d 5 ([1]; Exp. 8305, 3.2 mg/kg/dose): 6/6
- % T/C ([1]; Exp. 8305, 4.8 mg/kg/dose): 193%
- Av. wgt. change ([1]; Exp. 8305, 4.8 mg/kg/dose): -0.8 g
- Med. surv. time ([1]; Exp. 8305, 4.8 mg/kg/dose): 13.5
- No. of mice alive on d 5 ([1]; Exp. 8305, 4.8 mg/kg/dose): 6/6
- % T/C ([1]; Exp. 8328, 1.6 mg/kg/dose): 129%
- Av. wgt. change ([1]; Exp. 8328, 1.6 mg/kg/dose): -0.1 g
- Med. surv. time ([1]; Exp. 8328, 1.6 mg/kg/dose): 9.0
- No. of mice alive on d 5 ([1]; Exp. 8328, 1.6 mg/kg/dose): 6/6
- % T/C ([1]; Exp. 8328, 3.2 mg/kg/dose): 143%
- Av. wgt. change ([1]; Exp. 8328, 3.2 mg/kg/dose): -0.7 g
- Med. surv. time ([1]; Exp. 8328, 3.2 mg/kg/dose): 10.0
- No. of mice alive on d 5 ([1]; Exp. 8328, 3.2 mg/kg/dose): 6/6
- % T/C ([2]; Exp. 8305, 3.2 mg/kg/dose): 200%
- Av. wgt. change ([2]; Exp. 8305, 3.2 mg/kg/dose): -0.5 g
- Med. surv. time ([2]; Exp. 8305, 3.2 mg/kg/dose): 20.0
- No. of mice alive on d 5 ([2]; Exp. 8305, 3.2 mg/kg/dose): 6/6
- % T/C ([2]; Exp. 8305, 4.8 mg/kg/dose): 230%
- Av. wgt. change ([2]; Exp. 8305, 4.8 mg/kg/dose): -0.7 g
- Med. surv. time ([2]; Exp. 8305, 4.8 mg/kg/dose): 23.0
- No. of mice alive on d 5 ([2]; Exp. 8305, 4.8 mg/kg/dose): 6/6
- % T/C ([2]; Exp. 8328, 3.2 mg/kg/dose): 190%
- Av. wgt. change ([2]; Exp. 8328, 3.2 mg/kg/dose): -0.8 g
- Med. surv. time ([2]; Exp. 8328, 3.2 mg/kg/dose): 19.0
- No. of mice alive on d 5 ([2]; Exp. 8328, 3.2 mg/kg/dose): 6/6
- % T/C ([2]; Exp. 8328, 4.8 mg/kg/dose): 200%
- Av. wgt. change ([2]; Exp. 8328, 4.8 mg/kg/dose): -0.5 g
- Med. surv. time ([2]; Exp. 8328, 4.8 mg/kg/dose): 20.0
- No. of mice alive on d 5 ([2]; Exp. 8328, 4.8 mg/kg/dose): 6/6

SMILES: COc1cc([C@@H]2c3cc4c(cc3[C@@H](O[C@@H]3O[C@@H]5CO[C@@H](C)O[C@H]5[C@H](O)[C@H]3O)[C@H]3COC(=O)[C@H]23)OCO4)cc(OC)c1O [VP-16, etoposide, reference compound]
- IC50 [3]: 0.057 µg/mL (≈ 0.0968 µM)
- IC50 [4]: 0.69 µg/mL (≈ 1.17 µM)
- IC50 [5]: 3.25 µg/mL (≈ 5.53 µM)
- IC50 [6]: 8.76 µg/mL (≈ 14.9 µM)
- fold less potent on the resistant cell line compared to the sensitive cell line ([7]; A2780/DDP vs A2780, 4320 min): about 6.6 fold
- IC50 ([7]; Homo sapiens, A2780/DDP, 72 h, VP-16 values: mean of triplicate determinations from last 6 experiments, read-out: IC50): 0.379 µg/mL (≈ 0.644 µM)
